Results published in publication PMC9923724, “Half sandwich-type osmium, ruthenium, iridium and rhodium complexes with bidentate glycosyl heterocyclic ligands induce cytostasis in platinum-resistant ovarian cancer cells and bacteriostasis in Gram-positive multiresistant bacteria” (Frontiers in Chemistry, 2023).
Where two headings read alike, the source gives them in different places. One block for each molecule: values may come before it.

Assays:
[1] = Solubility / precipitation observed during testing; format: physicochemical; conditions: free ligand in cell assays
Procedure: In concentrations exceeding 33.3 µM the complexes frequently precipitated. All of the complexes and the free ligand exerted little rapid cytotoxicity in MTT assays, not more than 35% in any of the cell lines assessed in the peak concentration, except for the Os-7 complex with 75% toxicity on ID8 cells (Figure 5; Table 2). […] The complexes were more efficient in ID8 cells as compared to A2780 cells (Figure 5; Table 2). […] On primary non-transformed fibroblasts, used as controls, the complexes exerted negligible toxicity and low cytostatic activity (Figure 5; Table 2). The cytostatic activity was not more than 50% in the peak concentration.

[2] = test system: A2780 ovarian cancer cells; assay: MTT reduction assay (rapid toxicity, 4 h) on A2780 cells; format: cell-based; conditions: 4 h treatment
Procedure: (§1) First, we assessed a set of osmium complexes (similar to Ia [[Kacsir et al., 2022]) in Figure 1] and their sugar-derived ligands, in which the benzoyl protective groups on the carbohydrate moiety were replaced by aliphatic acyl groups of different chain length (straight chain C3-C7–CO). Osmium was selected as a central ion, since osmium complexes had the best biological activity in our previous studies ([Balázs et al., 2022]; [Kacsir et al., 2022]). These compounds were tested on A2780 ovarian cancer cells for toxicity and cytostasis. The therapy of ovarian cancer is centered around platinum compounds ([Brown et al., 2019]; [Sipos et al., 2021]), therefore, it was logical to use a cellular model of ovarian cancer for the initial testing of the compounds. Toxicity was assessed using the MTT assay that measures the activity of mitochondrial complex I. We chose 4 h long treatment as in an MTT assay this time point is suitable to detect rapid, direct toxicity. Cytostasis was assessed after 48 h of treatment using the SRB assay that assesses protein content that corresponds to cell count. The characteristics of the compounds are detailed in Table 2.
(§2) 3 × 10^3 A2780 cells, were plated to 96 well plates. Cells were treated with the compounds in the concentrations indicated for either 4 h for an MTT assay or for 48 h for an SRB assay. Data is represented as average ± SD, from three biological replicates; individual assays were performed in duplicates. Values were normalized for vehicle treated cells, absorbance for vehicle treated cells equals to 1. […] Except for the Os-6 complex, Two-way ANOVA test was performed and all values were compared with each other (Tukey’s post hoc test). […] Non-linear regression was performed on the data.
(§3) 3 × 10^3 A2780 cells, 2 × 10^3 ID8 cells and 4 × 10^3 primary fibroblasts were plated to 96 well plates. Cells were treated with the compounds in the concentrations indicated for either 4 h for an MTT assay or for 48 h for an SRB assay. Data is represented as average ± SD, from three biological replicates; individual assays were performed in duplicates. Values were normalized for vehicle treated cells, absorbance for vehicle treated cells equals to 1. Statistical significance was assessed using two-way ANOVA test comparing the free ligand and each complex as a complex-ligand pair. Before the test normality was assessed using the D’Agostino-Pearson test. The ID8 SRB Ir-7+L-7 dataset had lognormal distribution. […] All other datasets had normal distribution. For better visibility the p values are presented in an excel sheet at https://figshare.com/s/2c942a812caea8869a67. Non-linear regression was performed on the A2780 SRB and the ID8 SRB datasets.
(§4) MTT reduction assay measures the activity of mitochondrial complex I and can be used to detect toxicity ([Virág et al., 1998]; [Henslee et al., 2016]). The assay was performed similar to ([Bakondi et al., 2003]). Briefly, cells were plated in 96 well plates the day before the assay. Cells were treated with the compounds for 4 h, then MTT was added in 0.5 mg/ml final concentration and cells were incubated at 37°C in a cell incubator. Culture media was removed and the reduced MTT dye was dissolved in dimethyl-sulfoxide (DMSO) and plates were measured in a plate photometer (Thermo Scientific Multiscan GO spectrophotometer, Waltham, MA, United States) at 540 nm. On each plate wells were designed to contain untreated/vehicle-treated cells. In calculations the readings for these wells was considered as 1 and all readings were expressed relative to these values.

[3] = test system: A2780 ovarian cancer cells; assay: SRB assay (cytostasis, 48 h) on A2780 cells; format: cell-based; conditions: 48 h treatment
Procedure: as §1, §2, §3
(§5) The assay was performed similar to ([Kovács et al., 2019]). Cells were seeded in 96 well plates the day before the assay. Cells were treated with the compounds for 48 h. Cells were fixed with 10% trichloroacetic acid (TCA). Fixed cells were washed in distilled water 3 times followed by staining with SRB (0.4 m/V% dissolved in 1% acetic acid) for 10 min. Stained cells were washed in 1% acetic acid 5 times; acetic acid was removed and cells were left to dry. Protein-bound SRB was released by adding 100 µl 10 mM Tris base. Plates were measured in a plate photometer (Thermo Scientific Multiscan GO spectrophotometer, Waltham, MA, United States) at 540 nm. On each plate wells were designed to contain vehicle-treated cells. In calculations the readings for these wells was considered as 1 and all readings were expressed relative to these values.
Statistical analysis was performed using 8.0.1 version of Graphpad Prism. Values were tested for normal distribution using the D’Agostino and Pearson normality test. When necessary, values were log normalized or were normalized using the Box-Cox normalization method ([Box and Cox, 1964]) as indicated in the figure captions. […]

[4] = test system: primary dermal fibroblasts; assay: MTT reduction assay (4 h) on primary fibroblasts; format: cell-based; conditions: primary human dermal fibroblasts
Procedure: as §3
Human primary dermal fibroblasts were cultured in low glucose DMEM (1 g/L glucose) medium supplemented with 20% fetal calf serum, 2 mM glutamine, 1% penicillin-streptomycin.
as §4

[5] = test system: A2780 ovarian cancer cells; conditions: ref Kacsir et al., cited from earlier work
[6] = test system: multiresistant bacteria (Staphylococcus aureus, Enterococcus species); set-up: method as in Balázs et al., 2022; conditions: ref Balázs et al., 2022; cited from earlier work
[7] = test system: cisplatin resistant A2780 cells; assay: SRB assay (48 h) on cisplatin-resistant A2780 cells; format: cell-based
Procedure: 6 × 10^3 cisplatin-resistant A2780 cells were plated to 96 well plates. Cells were treated with the compounds in the concentrations indicated for either 4 h for an MTT assay or for 48 h for an SRB assay. Data is represented as average ± SD, from three biological replicates; individual assays were performed in duplicates. Values were normalized for vehicle treated cells, absorbance for vehicle treated cells equals to 1. Each compound was assessed individually. Normality was assessed using the Shapiro-Wilk test. […] Statistical significance was assessed using One-way ANOVA test comparing all points to the smallest concentration. For better visibility the p values are presented in an excel sheet at https://figshare.com/s/2c942a812caea8869a67. Non-linear regression was performed on the results of the SRB assay datasets.
Cisplatin resistant cells underwent selection (1 µM cisplatin) once a week for 3 days before plating for any assay.
as §5
Statistical analysis was performed using 8.0.1 version of Graphpad Prism. Values were tested for normal distribution using the D’Agostino and Pearson normality test. When necessary, values were log normalized or were normalized using the Box-Cox normalization method ([Box and Cox, 1964]) as indicated in the figure captions.

[8] = Determination of the distribution coefficients (logD); format: physicochemical; conditions: distribution coefficient
[9] = test system: vancomycin-resistant Enterococcus (VRE) clinical isolates; assay: Broth microdilution MIC, clinical VRE isolates; format: cell-based, E. faecium
Procedure: (§6) The MIC values of the complexes were determined against the reference strains of S. aureus (ATCC29213) and E. faecalis. (ATCC29212) and against clinical VRE and MRSA isolates by microdilution assays (repeated at least twice in duplicates) as described in Materials and Methods. The numbers indicate how many isolates were susceptible to the compound out of those tested; i.e., 1/6 stands for 1 isolate was susceptible out of 6 tested. […] Cells were harvested and lysed. Cellular proteins was separated on a 10% SDS-PAGE gel and were blotted. Blots were probed with 4HNE antibody (top blot), the lower blot was stained with amido black. Arrows point at band of interest. Experiments were repeated three times and a representative blot is shown. On the blots brightness and contrast were adjusted. […] Each was matched to a substance and strain by its position over the x-axis categories. / Ir-7: ND and 0/3 (left plot) and ND and 0/6 (right plot) were matched to E. faecalis/VRE and S. aureus/MRSA by position only.
(§7) We used a set of clinical isloates of S. aureus and E. faecium that were collected at the Medical Center of the University of Debrecen (Hungary) between 01. 01. 2018.—31. 12. 2020. The clinical isolates were identified using a Microflex MALDI-TOF mass spectrometer (Bruker, Billerica, MA, United States). Antibiotic susceptibility of the isolates was tested following the European Committee on Antimicrobial Susceptibility Testing ([EUCAST, 2021]) guidelines valid at the time of collection.
(§8) Microdilution experiments were performed according to the standards of EUCAST ([EUCAST, 2021]). […] The inoculated plates were incubated for 24 h at 37°C then were assessed visually. […] All experiments were performed at least twice in duplicates.

[10] = test system: methicillin-resistant Staphylococcus aureus (MRSA) clinical isolates; assay: Broth microdilution MIC, clinical MRSA isolates; format: cell-based
Procedure: as §6, §7, §8

[11] = test system: Staphylococcus aureus (ATCC29213); assay: Broth microdilution MIC, Staphylococcus aureus reference strain; format: cell-based
Procedure: as §6
(§9) We used the reference strains of Staphylococcus aureus (ATCC29213), and Enterococcus faecalis (ATCC29212) that were purchased from ATCC (Manassas, VA, United States).
as §8

[12] = test system: Enterococcus faecalis (ATCC29212); assay: Broth microdilution MIC, Enterococcus faecalis reference strain; format: cell-based
Procedure: as §6, §9, §8

[13] = cisplatin resistant A2780 cells, SRB, 48 h

- solubility (suitability for testing) [1]: insoluble
Compound: CCCCCCCC(=O)OC[C@H]1O[C@@H](n2cc(-c3ccccn3)nn2)[C@H](OC(=O)CCCCCCC)[C@@H](OC(=O)CCCCCCC)[C@@H]1OC(=O)CCCCCCC [L-6]

Compound: Cc1c(C)c(C)[c-](C)c1C.F[P-](F)(F)(F)(F)F.O=C(OCC1OC(n2cc(-c3ccc4ccccc4n3)nn2)C(OC(=O)c2ccccc2)C(OC(=O)c2ccccc2)C1OC(=O)c1ccccc1)c1ccccc1.[Cl][Rh+2] (mixture of isomers) [Rh-7]
- A2780 MTT Max. (maximal inhibition) [2]: 18.3%
- A2780 SRB Max. (maximal inhibition) [3]: 47.9%
- Fibroblast MTT Max. (maximal inhibition) [4]: 15.09%

Compound: Cc1ccc(C(C)C)cc1.F[P-](F)(F)(F)(F)F.O=C(OCC1OC(n2cc(-c3ccccn3)nn2)C(OC(=O)c2ccccc2)C(OC(=O)c2ccccc2)C1OC(=O)c1ccccc1)c1ccccc1.[Cl][Os+] (mixture of isomers) [Ia]
- IC50 ([5]; A2780 cells, 2022, read-out: IC50 against A2780 ovarian cancer): 0.73 µM
- MIC on multiresistant bacteria [6]: 0.3 to 5.0 µM

Compound: N.N.[Cl][Pt][Cl] [Cisplatin, cisplatin, reference compound]
- fold change of IC50, cisplatin resistant vs cisplatin sensitive A2780 ([7]; SRB assays, resistant / sensitive A2780): 13.6 fold
- IC50 [7, 13]: 16.5 µM
- cisplatin resistant A2780 SRB Max. (maximal inhibition) [7, 13]: >90%
- A2780 SRB Max. (maximal inhibition), cisplatin ([5]; A2780 cells, SRB, 2021): >90%
- IC50 ([5]; cisplatin-sensitive A2780 cells, SRB, 2021, read-out: A2780 SRB IC50, cisplatin): 1.21 µM

Compound: CCCCCCCC(=O)OCC1OC(n2cc(-c3ccccn3)nn2)C(OC(=O)CCCCCCC)C(OC(=O)CCCCCCC)C1OC(=O)CCCCCCC.Cc1ccc(C(C)C)cc1.F[P-](F)(F)(F)(F)F.[Cl][Os+] (mixture of isomers) [Os-6]
- LogD [8]: 2.8
- MIC against clinical VRE isolates (as a group) ([9]; 3 clinical VRE isolates): > 40 µM
- VRE isolates susceptible out of those tested ([9]; 3 isolates tested, susceptible = MIC up to 40 µM): 0/3
- MIC, VRE 25 051 ([9]; clinical isolate 25 051, nephrostoma, 2018): 40< µM
- MIC, VRE 25 498 ([9]; clinical isolate 25 498, rectal swab, 2018): 40< µM
- MIC, VRE 27 085 ([9]; clinical isolate 27 085, wound, 2018): 40< µM
- A2780 MTT Max. (maximal inhibition) [2]: 76.9%
- IC50 [2]: 16.5 µM
- MIC against clinical MRSA isolates (as a group) ([10]; 6 clinical MRSA isolates): > 40 µM
- MRSA isolates susceptible out of those tested ([10]; 6 isolates tested, susceptible = MIC up to 40 µM): 0/6
- MIC, MRSA 20 426 ([10]; clinical isolate 20 426, blood, 2020): 40< µM
- MIC, MRSA 24 035 ([10]; clinical isolate 24 035, wound, 2018): 40< µM
- MIC, MRSA 24 268 ([10]; clinical isolate 24 268, throat, 2018): 40< µM
- MIC, MRSA 24 272 ([10]; clinical isolate 24 272, throat, 2018): 40< µM
- MIC, MRSA 24 328 ([10]; clinical isolate 24 328, throat, 2018): 40< µM
- MIC, MRSA 24 408 ([10]; clinical isolate 24 408, bronchial, 2018): 40< µM
- MIC, Reference S. aureus ([11]; Staphylococcus aureus ATCC29213, 24 h): 40< µM
- MIC (μM) (S. aureus), Figure 11 ([11]; reference strain ATCC29213): ND (ND—not detected, MIC>40 µM)
- A2780 SRB Max. (maximal inhibition) [3]: 88.4%
- MIC, Reference E. faecalis ([12]; Enterococcus faecalis ATCC29212, 24 h): 40< µM
- MIC (μM) (E. faecalis), Figure 11 ([12]; reference strain ATCC29212, printed in the picture): ND (ND—not detected, MIC>40 µM)
